{"source": "patent US7494669B2", "about": "“Delivery of physiological agents with in-situ gels comprising anionic polysaccharides” (priority 2001, dated 2009)", "key": {"[1]": {"assay": "Gel frontal migration assay with serum", "assay_type": "physicochemical", "details": "3 mg/ml pectin with 0.0039% or 0.0078% calcium chloride on normal calf serum", "excerpt": "Body fluids such as blood, lacrimal fluid, lung fluid and nasal secretions contain calcium ions ([…] in blood, for example). Since Aloe pectin forms calcium gel, the role of calcium in the in-situ gelation of Aloe pectin was examined using an in vitro gelling assay with animal serum that simulates in-situ gel formation. This in vitro assay is described as a gel frontal migration assay. Animal serum was placed at the bottom of a glass tube and the Aloe pectin solution was layered on top of the serum (the pectin solution may also be placed at the bottom of the tube dependent on the density of the test solution in relation to the pectin solution). Tissue culture grade normal calf serum was used. […]\nGel formation was immediate at the contact line (interface of the solutions) and the gel phase or gel front gradually extended upward in the pectin solution over time. […] The thickness of the gel formed at the interface can be measured over time (such measurements are referred to as “gel length” hereinbelow).\nThe gel frontal migration assay described above was used. […] After 18 hrs at room temperature, the length of gels formed (i.e. gel thickness) was measured. […]\nThe gel frontal migration assay described above was used. […] The length of gels formed was measured 18 hrs later. […]"}, "[2]": {"assay": "Gelation of HMW Aloe pectin solution on mixing with divalent cation salts", "assay_type": "physicochemical", "design": "key: + indicates whole gel formation; ± partial gel formation; − no gel formation and solution remains clear and homogenous", "protocol": "A 0.6% (w/v) HMW Aloe pectin solution in water was mixed with calcium chloride dihydrate solutions at various concentrations, at an 1:1 ratio (1 ml to 1 ml) to achieve a final polymer concentration of 0.3% (w/v) and a final calcium chloride dihydrate concentration from 0.0019-0.5% (w/v). The mixtures were immediately vortexed together, then the tubes were kept at room temperature and observed over time."}, "[3]": {"tested_on": "cells surrounding the gel", "assay": "Local delivery of bFGF by Aloe pectin in-situ gel", "assay_type": "in vivo, mice", "excerpt": "For growth factors to exert local effect on tissues surrounding the administration site, they need to be delivered in a matrix to allow them to be released in a slow or sustained manner. A delivery in saline or buffer alone is not effective in this regard. In this example, a growth factor (bFGF) was used. bFGF (basic fibroblast growth factor or FGF-2) is a growth factor known to stimulate fibroblast proliferation and angiogenesis or blood vessel formation. It was mixed with Aloe pectin (0.5%, w/v) in physiological saline at a concentration of 1-10 μg/ml and then injected subcutaneously into the lower left or right side of abdominal region of mice. One side received the control (pectin alone), and the other side received the bFGF-containing preparation. The in-situ gels from two mice were harvested along with skin at days 5-10 and subjected to fixation in formalin, sectioning, and H&E staining. Two identical areas, at either end of the gel, vertically between the gel surface and the skin muscle layer and horizontally 510 μm inward from the lateral end of the gel were selected, and the cells in these two selected areas from each gel were numerated using the NIH image software."}, "[4]": {"details": "0.3% (w/v) HMW Aloe pectin, salt 0 % w/v final"}, "[5]": {"details": "0.3% (w/v) HMW Aloe pectin, salt 0.0019 % w/v final"}, "[6]": {"details": "0.3% (w/v) HMW Aloe pectin, salt 0.0039 % w/v final"}, "[7]": {"details": "0.3% (w/v) HMW Aloe pectin, salt 0.0156 % w/v final"}, "[8]": {"details": "0.3% (w/v) HMW Aloe pectin, salt 0.0313 % w/v final"}, "[9]": {"details": "0.3% (w/v) HMW Aloe pectin, salt 0.0625 % w/v final"}, "[10]": {"details": "0.3% (w/v) HMW Aloe pectin, salt 0.125 % w/v final"}, "[11]": {"details": "0.3% (w/v) HMW Aloe pectin, salt 0.25 % w/v final"}, "[12]": {"details": "0.3% (w/v) HMW Aloe pectin, salt 0.5 % w/v final"}}, "note": "Read-outs that look alike come from different tables or passages of the source.", "data": [{"compound": "O.O.[Ca+2].[Cl-].[Cl-]", "note": "[CaCl2•2H2O, calcium chloride dihydrate]", "values": [{"measurement": "Gel formation versus control without added calcium chloride", "setting": "[1]", "value": "gel formation increased"}, {"measurement": "Gel formation on mixing with HMW Aloe pectin", "setting": "[2]", "value": "−"}, {"measurement": "Gel formation on mixing with HMW Aloe pectin", "setting": "[2]; [4]", "value": "−"}, {"measurement": "Gel formation on mixing with HMW Aloe pectin", "setting": "[2]; [5]", "value": "−"}, {"measurement": "Gel formation on mixing with HMW Aloe pectin", "setting": "[2]; [6]", "value": "−"}, {"measurement": "Gel formation on mixing with HMW Aloe pectin", "setting": "[2]; [7]", "value": "±"}, {"measurement": "Gel formation on mixing with HMW Aloe pectin", "setting": "[2]; [8]", "value": "+"}, {"measurement": "Gel formation on mixing with HMW Aloe pectin", "setting": "[2]; [9]", "value": "+"}, {"measurement": "Gel formation on mixing with HMW Aloe pectin", "setting": "[2]; [10]", "value": "+"}, {"measurement": "Gel formation on mixing with HMW Aloe pectin", "setting": "[2]; [11]", "value": "+"}, {"measurement": "Gel formation on mixing with HMW Aloe pectin", "setting": "[2]; [12]", "value": "+"}]}, {"compound": "[Cl-].[Cl-].[Zn+2]", "note": "[ZnCl2, zinc chloride]", "values": [{"measurement": "Gel formation on mixing with HMW Aloe pectin", "setting": "[2]; [4]", "value": "−"}, {"measurement": "Gel formation on mixing with HMW Aloe pectin", "setting": "[2]; [5]", "value": "−"}, {"measurement": "Gel formation on mixing with HMW Aloe pectin", "setting": "[2]; [6]", "value": "−"}, {"measurement": "Gel formation on mixing with HMW Aloe pectin", "setting": "[2]; 0.3% (w/v) HMW Aloe pectin, salt 0.0078 % w/v final", "value": "−"}, {"measurement": "Gel formation on mixing with HMW Aloe pectin", "setting": "[2]; [7]", "value": "±"}, {"measurement": "Gel formation on mixing with HMW Aloe pectin", "setting": "[2]; [8]", "value": "+"}, {"measurement": "Gel formation on mixing with HMW Aloe pectin", "setting": "[2]; [9]", "value": "+"}, {"measurement": "Gel formation on mixing with HMW Aloe pectin", "setting": "[2]; [10]", "value": "+"}, {"measurement": "Gel formation on mixing with HMW Aloe pectin", "setting": "[2]; [11]", "value": "+"}, {"measurement": "Gel formation on mixing with HMW Aloe pectin", "setting": "[2]; [12]", "value": "+"}]}, {"compound": "bFGF: basic fibroblast growth factor (FGF-2), delivered in 0.5% Aloe pectin in physiological saline", "values": [{"measurement": "Blood vessel formation surrounding the gel", "setting": "[3]; bFGF 10 μg/ml", "value": "increase in blood vessel formation"}, {"measurement": "Cell number in bFGF-treated relative to the control (pectin alone)", "setting": "[3]; bFGF 1-10 μg/ml in 0.5% Aloe pectin, subcutaneous, days 5-10", "value": "more than 2 times"}]}]}
